Measurements reported in US20220031800A1, “PEPTIDES FOR TREATING NON-EXUDATIVE MACULAR DEGENERATION AND OTHER DISORDERS OF THE EYE” (Allegro Pharmaceuticals, LLC, priority 2019, published 2022).
Square brackets hold non-standard residues; d marks the D form. Peptide text beside a SMILES is read from it. Cya = N[C@@H](CS(=O)(=O)O)C(=O)O

Tested on: study eye of subjects with intermediate non-exudative AMD
Test: SD-OCT Analysis 2 (thickness, volume, map coverage of retinal layers)
Type: in vivo, human
Protocol: Numerous study assessments were conducted at various time points throughout the study. Included among these study assessments were; refractive eye examinations, determinations of BCVA AND low-luminance BCVA, Lanthony D-15 color vision test, measurement of intraocular pressure (IOP), Indirect ophthalmoscopy/dilated fundus examinations and spectral-domain optical coherence tomography (SD-OCT). Also, blood and saliva samples were obtained from each subject for genetic analysis. The above-listed study assessments were performed at the time points indicated in Table 1, below: The OCT scans were analyzed by two (2) unrelated experts. In Analysis #2, the OCT images of study eyes were analyzed to determine mean thickness and mean volume of numerous retinal subfields and layer segments at baseline and at Week 12 for sham eyes and at baseline and at Week 32 for risuteganib eyes, to document any significant differences between groups of eyes based on baseline measurements or changes from baseline in those measurements. In addition to the quantitative analysis of OCT images, OCT Analysis #2 included qualitative assessment of the OCT images to identify GA, pseudodrusen, and disruption of the ELM and EZ layers. FIGS. 9A, 9B and 9C illustrate the level of varying pathology within the ELM based on quantitative mapping that were also assessed, with FIG. 9A (left) showing no ELM disruption, FIG. 9B (center) showing segmental disruption, and FIG. 9C showing diffuse disruption.

[1] = baseline to Week 32, risuteganib arm
[2] = baseline to Week 32, risuteganib arm, paired-eye analysis
[3] = baseline to Week 32, risuteganib nonresponder eyes
[4] = baseline to Week 32, risuteganib responder eyes
[5] = baseline to Week 32, risuteganib super-responder eyes
[6] = change from baseline at Week 32, Risuteganib Nonresponder eyes
[7] = change from baseline at Week 32, Risuteganib Responder eyes

C[C@@H](O)[C@H](NC(=O)[C@H](CS(=O)(=O)O)NC(=O)CNC(=O)[C@H](CCCNC(=N)N)NC(=O)CN)C(=O)N1CCC[C@H]1C(=O)O [risuteganib, Glycyl-L-arginylglycyl-3-sulfo-L-alanyl-L-threonyl-L-proline] (H-GRG[Cya]TP-OH)
Change in ELM-RPE mid subfield volume [1]: −0.002 mm^3
Change in ONL-RPE central subfield volume [1]: −0.005 mm^3
Change in ONL-RPE mid subfield volume [1]: −0.020 mm^3
Change in mean ONL-RPE mid subfield thickness [1]: −6.441 μm
Change in mean total retinal mid subfield thickness [1]: −2.548 μm
Change in total retinal mid subfield volume [1]: −0.008 mm^3
Difference in map coverage, 0 μm RPE-BM [1]: 1.282%
Difference in map coverage, 50 μm RPE-BM [1]: −2.644%
Difference in map coverage, 150 μm RPE-BM [1]: 2.739%
Change in mean ELM-RPE central subfield thickness [2]: −2.912 μm
Change in mean ONL-RPE central subfield thickness [2]: −7.216 μm
Change in ONL-RPE mid subfield volume [3]: −0.020 mm^3
Change in RPE-BM volume [3]: 0.037 mm^3
Change in mean ONL-RPE mid subfield thickness [3]: −6.320 μm
Change in mean total retinal central subfield thickness [3]: −5.981 μm
Change in mean total retinal mid subfield thickness [3]: −4.046 μm
Change in total retinal central subfield volume [3]: −0.004 mm^3
Change in total retinal mid subfield volume [3]: −0.012 mm^3
Change in total retinal volume [3]: 0.091 mm^3
Difference in map coverage, <10 μm EZ [3]: 1.332%
Difference in map coverage, <20 μm EZ [3]: 1.288%
Change in ELM-RPE central subfield volume [4]: −0.002 mm^3
Change in RPE-BM volume [4]: −0.049 mm^3
Difference in map coverage, 50 μm RPE-BM [4]: −3.494%
Difference in map coverage, 150 μm RPE-BM [4]: 3.335%
Change in mean ELM-RPE central subfield thickness (baseline to Week 32, risuteganib responder eyes, paired-eye analysis): −3.102 μm
Change in ELM-RPE central subfield volume [5]: −0.003 mm^3
Difference in map coverage, 150 μm RPE-BM [5]: 2.943%
Change in mean ELM-RPE central subfield thickness (baseline to Week 32, risuteganib super-responder eyes, paired-eye analysis): −3.461 μm
Change in mean thickness, ELM-EZ central subfield [6]: −1.332 μm
Change in mean thickness, ELM-EZ mid subfield [6]: 0.754 μm
Change in mean thickness, ELM-RPE central subfield [6]: −2.722 μm
Change in mean thickness, ELM-RPE foveal center [6]: −12.189 μm
Change in mean thickness, ELM-RPE mid subfield [6]: −1.044 μm
Change in mean thickness, EZ-RPE central subfield [6]: −1.390 μm
Change in mean thickness, EZ-RPE foveal center [6]: −1.789 μm
Change in mean thickness, EZ-RPE mid subfield [6]: −1.798 μm
Change in mean thickness, Inner retina central subfield [6]: 1.896 μm
Change in mean thickness, Inner retina mid subfield [6]: 2.274 μm
Change in mean thickness, ONL-EZ central subfield [6]: −6.486 μm
Change in mean thickness, ONL-EZ mid subfield [6]: −4.522 μm
Change in mean thickness, ONL-RPE central subfield [6]: −7.877 μm
Change in mean thickness, ONL-RPE foveal center [6]: −7.626 μm
Change in mean thickness, ONL-RPE mid subfield [6]: −6.320 μm
Change in mean thickness, RPE-BM central subfield [6]: −0.118 μm
Change in mean thickness, RPE-BM foveal center [6]: −3.740 μm
Change in mean thickness, RPE-BM mid subfield [6]: 1.114 μm
Change in mean thickness, Total retinal central subfield [6]: −5.981 μm
Change in mean thickness, Total retinal foveal center [6]: −9.112 μm
Change in mean thickness, Total retinal mid subfield [6]: −4.046 μm
Change in volume, ELM-EZ central subfield [6]: −0.001 mm^3
Change in volume, ELM-EZ mid subfield [6]: 0.002 mm^3
Change in volume, ELM-RPE [6]: 0.009 mm^3
Change in volume, ELM-RPE central subfield [6]: −0.002 mm^3
Change in volume, ELM-RPE mid subfield [6]: −0.003 mm^3
Change in volume, EZ-RPE [6]: 0.005 mm^3
Change in volume, EZ-RPE central subfield [6]: −0.001 mm^3
Change in volume, EZ-RPE mid subfield [6]: −0.006 mm^3
Change in volume, ONL-EZ central subfield [6]: −0.005 mm^3
Change in volume, ONL-EZ mid subfield [6]: −0.014 mm^3
Change in volume, ONL-RPE [6]: −0.026 mm^3
Change in volume, ONL-RPE central subfield [6]: −0.006 mm^3
Change in volume, ONL-RPE mid subfield [6]: −0.020 mm^3
Change in volume, RPE-BM [6]: 0.037 mm^3
Change in volume, RPE-BM central subfield [6]: 0.000 mm^3
Change in volume, RPE-BM mid subfield [6]: 0.004 mm^3
Change in volume, Total retinal [6]: 0.091 mm^3
Change in volume, Total retinal central subfield [6]: −0.004 mm^3
Change in volume, Total retinal mid subfield [6]: −0.012 mm^3
Map coverage, 0 μm EZ [6]: 1.469%
Map coverage, 0 μm RPE-BM [6]: 1.465%
Map coverage, 10 μm EZ [6]: 1.332%
Map coverage, 20 μm EZ [6]: 1.288%
Map coverage, 50 μm RPE-BM [6]: −1.794%
Map coverage, 150 μm RPE-BM [6]: 2.143%
Map coverage, 250 μm RPE-BM [6]: 0.000%
Change in mean thickness, ELM-EZ central subfield [7]: −2.322 μm
Change in mean thickness, ELM-EZ mid subfield [7]: −0.967 μm
Change in mean thickness, ELM-RPE central subfield [7]: −3.102 μm
Change in mean thickness, ELM-RPE foveal center [7]: 0.000 μm
Change in mean thickness, ELM-RPE mid subfield [7]: −2.141 μm
Change in mean thickness, EZ-RPE central subfield [7]: −0.779 μm
Change in mean thickness, EZ-RPE foveal center [7]: 0.975 μm
Change in mean thickness, EZ-RPE mid subfield [7]: −1.174 μm
Change in mean thickness, Inner retina central subfield [7]: 5.864 μm
Change in mean thickness, Inner retina mid subfield [7]: 5.512 μm
Change in mean thickness, ONL-EZ central subfield [7]: −5.775 μm
Change in mean thickness, ONL-EZ mid subfield [7]: −5.386 μm
Change in mean thickness, ONL-RPE central subfield [7]: −6.555 μm
